Data reported in patent US4485117A, “Antiprotozoal compounds” (priority 1981, dated 1984).
≈ marks a conversion by molar mass, not a printed value. Like-named read-outs stand apart in the source and are kept apart here. Each block holds one molecule with its values, some of them ahead of it.

Assays:
[1] = test system: E. tenella; experiment: In vitro activity against E. tenella in cell cultures; assay type: cell-based; conditions: Eimeria tenella, 96 hours, read-out: MIC (minimum inhibitory concentration)
Description: Compounds tested in Example 5 were assessed for their activity against E. tenella. In the method employed cell cultures were infected with sporozoite suspensions of E. tenella immediately after addition of the compounds. […] After incubation for 96 hours the cultures were fixed and the cells were stained with 0.1% toluidine blue. The stained cultures were examined microscopically for presence of parasites.

[2] = test system: Plasmodium falciparum; experiment: Inhibitory effect on Plasmodium falciparum in culture (G-3H-hypoxanthine uptake); assay type: cell-based; conditions: for IC50: P. falciparum culture, 36 hours, read-out: ED50 (the source's name)
Description: Compounds of the following formula, including compounds of formula (I), were examined for their inhibitory effect on Plasmodium falciparum. [drawing 11]
The test method was a modification of that described by Desjardins et al., Antimicrob. Agents and Chemotherapy,1979,16,710-718. Compounds were dissolved in ethanol at a concentration of 1000 mg/L and dilutions down to 1 mg/L were made. The drug solutions were serially diluted using RPMI 1640 medium+10% human plasma in microtitration plates. Parasitised and fresh red blood cells were added together with G^3 H-hypoxanthine, in RPMI 1640 medium+10% human plasma and the cultures incubated for 36 hours. Cultures were then harvested, the particulate contents collected on a glass-fibre filter paper and washed copiously with water. The filter papers were dried and the radioactivity measured using a scintillation counter. Infected untreated and uninfected untreated cultures were included as controls. Percent inhibition was correlated with dose to provide an ED50.

[3] = test system: Eimeria tenella; experiment: In vivo anticoccidiosis screen in chicks, E. tenella; design: species or system Eimeria tenella; male Ross Ranger chicks; conditions: 6 days, fifth day of infection, groups of 5
Description: (§1) Compounds tested in Example 7(a) were examined in an in vivo anticoccidiosis screen.
(§2) The compounds were administered to groups of 5 male Ross Ranger chicks (7 days old), at various dosages in the diet, for 6 days. The chicks were each infected with Eimeria tenella and E. acervulina one day after the beginning of the medication. The number of birds cleared of E. tenella lesions was noted on the fifth day of infection as was the presence or absence of E. acervulina oocysts in the droppings. The results are shown in Table 3, in which the numbers refer to the number of birds cleared of E. tenella and the letters indicate the presence or absence of E. acervulina /A=absent; P=present; M=95% clearance in comparision with untreated controls/.

[4] = test system: E. acervulina; experiment: In vivo anticoccidiosis screen in chicks, E. acervulina; design: species or system Eimeria acervulina; male Ross Ranger chicks; key: A: absent; P: present; M: 95% clearance in comparision with untreated controls; conditions: 6 days, fifth day of infection
Description: as §1, §2

[5] = test system: malaria; conditions: background art; cited from earlier work
[6] = test system: rat eye; experiment: Anti-inflammatory activity in the rat eye (bacterial endotoxin induced); assay type: in vivo; conditions: assessed at 24 and 48 hours
Description: The anti-inflammatory activity in the rat eye was determined, following both oral and topical administration, of 2-(4-t-butylcyclohexyl)-3-hydroxy-1,4-naphthoquinone. The inflammatory response for the test employed developed following injection of gram-negative bacterial endotoxin into the rat foodpad (Rosenbaum et. al Nature 286, 611-613 (1980)).
Vasodilation was assessed at 24 and 48 hours using a slit lamp, the rats then killed and the aqueous humour aspirated for determination of protein concentrations and total leucocyte numbers. The results are shown below as ED50.

[7] = in vivo; conditions: rat, rats, oral, read-out: acute oral LD50
Description: The acute oral LD50 's of compounds of formula (I) in rats were determined by standard techniques.

[8] = target: lipoxygenase; experiment: Enzyme assay, inhibition of lipoxygenase; assay type: biochemical, rabbit; conditions: in vitro
[9] = target: cyclo oxygenase; experiment: Enzyme assay, inhibition of cyclo oxygenase; assay type: biochemical, rabbit; conditions: in vitro

- MIC [1]: 0.46 µM (≈ 0.124 µg/mL)
- IC50 ([2]; Plasmodium falciparum, 36 h): 9.2 nM
Compound: C[C@H]1CC[C@H](C2=C(O)C(=O)c3ccccc3C2=O)CC1 [4'-Methyl (100% trans), reference compound]

- MIC [1]: 4 µM (≈ 1.25 µg/mL)
- IC50 ([2]; Plasmodium falciparum, 36 h): 300 nM
Compound: CC(C)(C)C1CCCC(C2=C(O)C(=O)c3ccccc3C2=O)C1 (stereo not drawn) [3'-t-Butyl (80% trans), reference compound]

Compound: CC(C)(C)C1CCC(C2=C(O)C(=O)c3ccccc3C2=O)CC1 (stereo not drawn) [4'-t-Butyl (80% trans), 2-(4'-t-butylcyclohexyl)-3-hydroxy-1,4-naphthoquinone]
- MIC [1]: 0.01 µM (≈ 0.00312 µg/mL)
- number of birds cleared of E. tenella lesions ([3]; 50 ppm in diet): 0/5
- number of birds cleared of E. tenella lesions ([3]; 100 ppm in diet): 5/5
- presence or absence of E. acervulina oocysts in the droppings ([4]; 50 ppm in diet): P
- presence or absence of E. acervulina oocysts in the droppings ([4]; 100 ppm in diet): A
- IC50 ([2]; 2160 min): 0.0375 nM

- IC50 ([2]; Plasmodium falciparum, 36 h): 0.0571 nM
Compound: CC(C)(C)[C@H]1CC[C@H](C2=C(O)C(=O)c3ccccc3C2=O)CC1 [4'-t-Butyl (100% trans), 2-(trans-4'-t-butylcyclohexyl)-3-hydroxy-1,4-naphthoquinone]

Compound: O=C1C(O)=C(CCCCCCCCC2CCCCC2)C(=O)c2ccccc21 [Menoctone, 2-(8-cyclohexyloctyl)-3-hydroxy-1,4-naphthoquinone, reference compound]
- activity in man (in words) [5]: poor activity in man
- ED50 ([2]; 36 h): 2.55×10^-7

Compound: CC(C)(C)C1CCC(C2=C(O)C(=O)c3ccccc3C2=O)CC1 (stereo not drawn) [4'-t-Butyl (50% trans), 2-(4'-t-butylcyclohexyl)-3-hydroxy-1,4-naphthoquinone]
- IC50 ([2]; 2160 min): 0.599 nM

- MIC [1]: 0.092 µM (≈ 0.0311 µg/mL)
- IC50 ([2]; Plasmodium falciparum, 36 h): 4.05 nM
Compound: O=C1C(O)=C([C@H]2CC[C@H](C3CCCCC3)CC2)C(=O)c2ccccc21 [4'-Cyclohexyl (100% trans), reference compound]
- number of birds cleared of E. tenella lesions ([3]; 50 ppm in diet): 1/5
- number of birds cleared of E. tenella lesions ([3]; 100 ppm in diet): 5/5
- number of birds cleared of E. tenella lesions ([3]; 200 ppm in diet): 5/5
- presence or absence of E. acervulina oocysts in the droppings ([4]; 50 ppm in diet): P
- presence or absence of E. acervulina oocysts in the droppings ([4]; 100 ppm in diet): P
- presence or absence of E. acervulina oocysts in the droppings ([4]; 200 ppm in diet): A

Compound: CCC(C)(C)C1CCC(C2=C(O)C(=O)c3ccccc3C2=O)CC1 (stereo not drawn) [4'-t-Pentyl (50% trans), 2-hydroxy-3-(4'-t-pentylcyclohexyl)-1,4-naphthoquinone]
- MIC [1]: 0.0096 µM (≈ 0.00313 µg/mL)

Compound: CC(C)(C)C1CCC(C2=C(O)C(=O)c3ccccc3C2=O)CC1 (stereo not shown) [2-(4'-t-butylcyclohexyl)-3-hydroxy-1,4-naphthoquinone]
- ED50 ([6]; Rattus norvegicus, oral): 5 to 25 mg/kg
- ED50, anti-inflammatory activity in the rat eye ([6]; topical): 10-20 ug/eye
- LD50 [7]: > 1000 mg/kg
- IC50 [8]: 23 µM
- IC50 [9]: 58 µM

Compound: CCC(C)(C)C1CCC(C2=C(O)C(=O)c3ccccc3C2=O)CC1 (stereo not shown) [2-hydroxy-3-(4'-t-pentylcyclohexyl)-1,4-naphthoquinone]
- IC50 [8]: 29 µM
- IC50 [9]: 63 µM

Compound: CCC(C)(C)C1CCC(C2=C(O)C(=O)c3ccccc3C2=O)CC1 (stereo not drawn) [4'-t-Pentyl (60% trans), 2-hydroxy-3-(4'-t-pentylcyclohexyl)1,4-naphthoquinone]
- number of birds cleared of E. tenella lesions ([3]; 50 ppm in diet): 4/5
- number of birds cleared of E. tenella lesions ([3]; 100 ppm in diet): 5/5
- number of birds cleared of E. tenella lesions ([3]; 200 ppm in diet): 5/5
- presence or absence of E. acervulina oocysts in the droppings ([4]; 50 ppm in diet): M (95% clearance in comparision with untreated controls)
- presence or absence of E. acervulina oocysts in the droppings ([4]; 100 ppm in diet): A
- presence or absence of E. acervulina oocysts in the droppings ([4]; 200 ppm in diet): A
- IC50 ([2]; Plasmodium falciparum, 36 h): 0.06 nM

- MIC [1]: 0.025 µM (≈ 0.00781 µg/mL)
- IC50 ([2]; Plasmodium falciparum, 36 h): 1.08 nM
Compound: CC(C)(C)[C@H]1CC[C@@H](C2=C(O)C(=O)c3ccccc3C2=O)CC1 [4'-t-Butyl (100% cis), 2-(cis-4'-t-butylcyclohexyl)-3-hydroxy-1,4-naphthoquinone]

Compound: CC(C)(C)C1CCC(C2=C(O)C(=O)c3ccccc3C2=O)CC1 (stereo not drawn) [4'-t-Butyl (75% trans), 2-(4'-t-butylcyclohexyl)-3-hydroxy-1,4-naphthoquinone]
- IC50 ([2]; 2160 min): 0.0563 nM
